Laboratory results: patent US20230286973A1, “PROTEIN SECRETION INHIBITORS” (KEZAR LIFE SCIENCES, priority 2020, published 2023)
Read-outs that look alike come from different tables or passages of the source.

Legend:
[1] = test system: IL-2-FL/Gaussia Luciferase; assay: Dox Induced IL2-FL-Gluc Assay; type: cell-based; conditions: for IC50: 24 hr Dox induction, 293FRT/TO cells, read-out: 24 hr Dox Inducible IL2FLGluc 293FRT/TO: Mean IC50; for 24 hr Dox Inducible IL2FLGluc 293FRT/TO: IL2/PD1: ratio of IL2FLGluc IC50 to PD1ssGluc IC50
Method in brief: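 Cells are plated one day ahead, then receive compound dilutions in DMSO/media with doxycycline and incubate at 37° C, 5% CO2. They are Flp-In 293 T-REx cells expressing a full-length IL-2 (amino acids 1-153)–Gaussia luciferase fusion under T-REx control.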

[2] = Liver Microsome Stability Assay (mouse); conditions: mouse liver microsomes, with NADPH, 1.0 uM compound
Description: (§1) Stability of a compound was assessed in the presence of liver microsomes from various sources—mouse, rat, monkey and human liver microsomes. 1.0 uM compound, 0.4% DMSO in 0.1 M Potassium Phosphate with 1.0 mg/mL liver microsomes, were incubated at 37° C. with or without 1 mM NADPH. The samples were quenched at 0, and 30 minutes.

[3] = test system: multiple myeloma cell line NCI-H929; assay: H929 Cell Viability Assay; type: cell-based, human; conditions: Homo sapiens, NCI-H929, 48 h, NCI-H929 cells, Celltiter-Glo
Method in brief: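 Luminescent ATP detection (CellTiter-Glo) after 48 hours of compound exposure measures viability. Cells were plated in RPMI 1640 containing 10% fetal bovine serum and kept at 37° C under 5% CO2.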

[4] = Liver Microsome Stability Assay (rat); conditions: rat liver microsomes, with NADPH, 1.0 uM compound
Description: as §1

[5] = test system: TNFα-FL/Gaussia Luciferase; assay: Dox Induced TNFα-FL-Gluc Assay; type: cell-based; conditions: for IC50: 24 hr Dox induction, 293FRT/TO cells, read-out: 24 hr Dox Inducible TNFaFLGluc 293FRT/TO: Mean IC50; for 24 hr Dox Inducible TNFaFLGluc 293FRT/TO: TNF/PD1: ratio of TNFaFLGluc IC50 to PD1ssGluc IC50
Method in brief: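 Stereoisomer mixtures were tested where stereochemistry is not drawn. Induction used doxycycline added together with compound dilutions in DMSO/media to Flp-In 293 T-REx cells carrying a T-REx-regulated TNFα (aa 1-233)-Gaussia luciferase construct, then incubated at 37 °C, 5% CO2.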

[6] = test system: PD1-ss+10aa/Gaussia Luciferase; assay: Dox-Induced PD1-ss-Gluc Assay; type: cell-based; conditions: 24 hr Dox induction, 293FRT/TO cells, read-out: 24 hr Dox Inducible PD1ssGluc 293FRT/TO: Mean IC50
Method in brief: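 Stable Flp-In 293 T-REx cells carried a doxycycline-inducible construct of Gaussia luciferase fused to the PD1 signal sequence plus 10 amino acids. Cells were plated the day before, then treated with compound dilutions in DMSO/media containing doxycycline at 37 °C, 5% CO2.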

[7] = test system: HER3-ss+4aa/Gaussia Luciferase; assay: Dox-Induced Her3-ss-Gluc Assay; type: cell-based; conditions: 24 hr Dox induction, 293FRT/TO cells, read-out: 24 hr Dox Inducible Her3(ss + 4)Gluc 293FRT/TO: Mean IC50
Method in brief: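 Cells were seeded a day ahead, then given compound diluted in DMSO/media with doxycycline to induce expression of the HER3 signal sequence (+4 aa)–Gaussia luciferase fusion. Incubation was at 37° C., 5% CO2, in a stable Flp-In 293 T-REx line.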

[8] = Liver Microsome Stability Assay (monkey); conditions: monkey liver microsomes, with NADPH, 1.0 uM compound
Description: as §1

[9] = test system: multiple myeloma cell line U266B1; assay: U266 Cell Viability Assay; type: cell-based, human; conditions: Homo sapiens, U-266, 48 h, U266B1 cells, Celltiter-Glo
Method in brief: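 Steps: culture in RPMI 1640 plus 10% FBS and 2 mM glutamine; plate and add compound dilutions; incubate 48 hours at 37° C., 5% CO2; add CellTiter-Glo and quantify luciferase signal.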

[10] = Liver Microsome Stability Assay (human); conditions: human liver microsomes, with NADPH, 1.0 uM compound
Description: as §1

[11] = '<=>' given where both are I.A.

IC50 [1] [µM] | Liver Microsome Stability (Multiple Species): Mouse - % Remaining after 30 min w/NADPH [2] [%] | EC50 [3] [µM] | Liver Microsome Stability (Multiple Species): Rat - % Remaining after 30 min w/NADPH [4] [%] | IC50 [5] [µM] | IC50 [6] [µM] | IC50 [7] [µM] | Liver Microsome Stability (Multiple Species): Monkey - % Remaining after 30 min w/NADPH [8] [%] | EC50 [9] [µM] | Liver Microsome Stability (Multiple Species): Human - % Remaining after 30 min w/NADPH [10] [%] | IC50 ([1]; mean) [µM] | IC50 ([5]; mean) [µM] | IC50 ([6]; mean) [µM] | IC50 ([7]; mean) [µM] | Structure (SMILES) | 24 hr Dox Inducible IL2FLGluc 293FRT/TO: IL2/PD1 [1] | 24 hr Dox Inducible TNFaFLGluc 293FRT/TO: TNF/PD1 [5] | 24 hr Dox Inducible IL2FLGluc 293FRT/TO: IL2/PD1 [1, 11] | 24 hr Dox Inducible TNFaFLGluc 293FRT/TO: TNF/PD1 [5, 11]
> 25 | 1.41 | > 25 | 11 | > 25 | > 25 | > 25 | 4.16 | > 25 | 3.28 |  |  |  |  | O=C1NC(/C=C/c2csc(NC(=O)c3cccn3Cc3ccncc3)n2)CO1 (centres unmarked) [Compound B12] | 1 | <=>1.00 |  | 
 | 0.08 | > 25 | 0.98 |  |  |  | 0.06 | > 25 | 0.01 | > 25 | > 25 | > 25 | > 25 | O=C(NC1=NC(/C=C/c2ccccc2)CS1)c1cccn1Cc1ccncc1 (centres unmarked) [Compound E51] |  |  | 1 | 
> 25 | 33.9 | > 25 | 44.2 | > 25 | 6.05 | > 25 | 0.24 | > 25 | 0.22 |  |  |  |  | CC(=O)N1CCC(n2cnc(/C=C/c3csc(NC(=O)c4cccn4Cc4ccnc(F)c4)n3)c2)CC1 [Compound B91, (E)-N-(4-(2-(1-(1-acetylpiperidin-4-yl)-1H-imidazol-4-yl)vinyl)thiazol-2-yl)-1-((2-fluoropyridin-4-yl)methyl)-1H-pyrrole-2-carboxamide] | >4.1 | >4.13 |  | 
 | 42.4 | > 25 | 49.6 |  |  |  | 23.4 | > 25 | 61.3 | 1.62 | > 25 | 2.12 | 1.51 | O=C(Nc1nc([C@H]2CCCN2c2ccccc2)cs1)c1cccn1Cc1ccc(F)cc1 [Compound C119, (R)-1-(4-fluorobenzyl)-N-(4-(1-phenylpyrrolidin-2-yl)thiazol-2-yl)-1H-pyrrole-2-carboxamide] |  |  | 0.76 | >11.8

More lines, now with the values behind:

Structure (SMILES) | IC50 [1] [µM] | Liver Microsome Stability (Multiple Species): Mouse - % Remaining after 30 min w/NADPH [2] [%] | EC50 [3] [µM] | Liver Microsome Stability (Multiple Species): Rat - % Remaining after 30 min w/NADPH [4] [%] | IC50 [5] [µM] | IC50 [6] [µM] | IC50 [7] [µM] | Liver Microsome Stability (Multiple Species): Monkey - % Remaining after 30 min w/NADPH [8] [%] | EC50 [9] [µM] | Liver Microsome Stability (Multiple Species): Human - % Remaining after 30 min w/NADPH [10] [%] | IC50 ([1]; mean) [µM] | IC50 ([5]; mean) [µM] | IC50 ([6]; mean) [µM] | IC50 ([7]; mean) [µM] | 24 hr Dox Inducible IL2FLGluc 293FRT/TO: IL2/PD1 [1] | 24 hr Dox Inducible TNFaFLGluc 293FRT/TO: TNF/PD1 [5] | 24 hr Dox Inducible IL2FLGluc 293FRT/TO: IL2/PD1 [1, 11] | 24 hr Dox Inducible TNFaFLGluc 293FRT/TO: TNF/PD1 [5, 11]
CC(=O)N1CC(Oc2ccc(N3CCC[C@@H]3c3csc(NC(=O)c4cccn4Cc4ccnc(F)c4)n3)cc2)C1 [Compound A81, (R)-N-(4-(1-(4-((1-acetylazetidin-3-yl)oxy)phenyl)pyrrolidin-2-yl)thiazol-2-yl)-1-((2-fluoropyridin-4-yl)methyl)-1H-pyrrole-2-carboxamide] | 0.0415 | 39.5 | 0.679 | 68.9 | 0.143 | 0.014 | 0.0237 | 8.77 | > 25 | 12.8 |  |  |  |  | 3 | 10.2 |  | 
O=C(Nc1nc([C@H]2CCCN2c2cccnn2)cs1)c1cccn1Cc1ccncc1 [Compound A29, (R)-N-(4-(1-(pyridazin-3-yl)pyrrolidin-2-yl)thiazol-2-yl)-1-(pyridin-4-ylmethyl)-1H-pyrrole-2-carboxamide] | 2.22 | 1.4 | > 25 | 4.6 | 13.1 | 0.534 | 1.13 | 0.39 | > 25 | 0.59 |  |  |  |  | 4.1 | 24.4 |  | 
CC(=O)N1CCC(Oc2ccc(N3CCC[C@@H]3c3csc(NC(=O)c4cc(C)cn4Cc4ccnc(F)c4)n3)cc2)CC1 [Compound A165, (R)-N-(4-(1-(4-((1-acetylpiperidin-4-yl)oxy)phenyl)pyrrolidin-2-yl)thiazol-2-yl)-1-((2-fluoropyridin-4-yl)methyl)-4-methyl-1H-pyrrole-2-carboxamide] | 0.0452 | 30.7 | 0.867 | 59.2 | 0.386 | 0.0298 | 0.053 | 47.5 | > 25 | 42.1 |  |  |  |  | 1.5 | 13 |  | 
N#Cc1cc(C(=O)Nc2nc([C@H]3CCCN3c3ccccc3)cs2)n(Cc2ccnc(F)c2)c1 [Compound A149, (R)-4-cyano-1-((2-fluoropyridin-4-yl)methyl)-N-(4-(1-phenylpyrrolidin-2-yl)thiazol-2-yl)-1H-pyrrole-2-carboxamide] | 0.152 | 46 | 2.54 | 17.1 | 1.01 | 0.0681 | 0.126 | 9.8 | 4.39 | 25.9 |  |  |  |  | 2.2 | 14.9 |  | 
O=C(Nc1nc([C@H]2CCCN2c2ccc(CCO)cc2)cs1)c1cccn1Cc1ccnc(F)c1 [Compound A78, (R)-1-((2-fluoropyridin-4-yl)methyl)-N-(4-(1-(4-(2-hydroxyethyl)phenyl)pyrrolidin-2-yl)thiazol-2-yl)-1H-pyrrole-2-carboxamide] | 0.0301 | 6.09 | 0.495 | 3.42 | 0.159 | 0.0132 | 0.0277 | 3.13 | > 25 | 6.01 |  |  |  |  | 2.3 | 12 |  | 
